Assay results taken from ChEMBL document CHEMBL5113380, “Functionalized quinoxalinones as privileged structures with broad-ranging pharmacological activities” (Eur J Med Chem, 2022).
Converted amounts (≈) assume the structure as drawn. Blank lines part the entries; values can stand above or below the compound they belong to.

Experiments:
Glutamate receptor 2 = Glutamate receptor 2 (Homo sapiens, UniProt P42262); assay: Binding affinity to GluA2 receptor (unknown origin)
[1] = molecular target: Glutamate receptor ionotropic, kainate 2 (Homo sapiens, UniProt Q13002); assay: Binding affinity to GluK2 receptor (unknown origin)
[2] = molecular target: Glutamate receptor ionotropic, kainate 1 (Homo sapiens, UniProt P39086); assay: Binding affinity to GluK1 receptor (unknown origin)
[3] = molecular target: T1, Glutamate receptor ionotropic, kainate 5 (Homo sapiens, UniProt Q16478); assay: Binding affinity to GluK5 receptor (unknown origin)
T1 sequence (Q16478 whole entry): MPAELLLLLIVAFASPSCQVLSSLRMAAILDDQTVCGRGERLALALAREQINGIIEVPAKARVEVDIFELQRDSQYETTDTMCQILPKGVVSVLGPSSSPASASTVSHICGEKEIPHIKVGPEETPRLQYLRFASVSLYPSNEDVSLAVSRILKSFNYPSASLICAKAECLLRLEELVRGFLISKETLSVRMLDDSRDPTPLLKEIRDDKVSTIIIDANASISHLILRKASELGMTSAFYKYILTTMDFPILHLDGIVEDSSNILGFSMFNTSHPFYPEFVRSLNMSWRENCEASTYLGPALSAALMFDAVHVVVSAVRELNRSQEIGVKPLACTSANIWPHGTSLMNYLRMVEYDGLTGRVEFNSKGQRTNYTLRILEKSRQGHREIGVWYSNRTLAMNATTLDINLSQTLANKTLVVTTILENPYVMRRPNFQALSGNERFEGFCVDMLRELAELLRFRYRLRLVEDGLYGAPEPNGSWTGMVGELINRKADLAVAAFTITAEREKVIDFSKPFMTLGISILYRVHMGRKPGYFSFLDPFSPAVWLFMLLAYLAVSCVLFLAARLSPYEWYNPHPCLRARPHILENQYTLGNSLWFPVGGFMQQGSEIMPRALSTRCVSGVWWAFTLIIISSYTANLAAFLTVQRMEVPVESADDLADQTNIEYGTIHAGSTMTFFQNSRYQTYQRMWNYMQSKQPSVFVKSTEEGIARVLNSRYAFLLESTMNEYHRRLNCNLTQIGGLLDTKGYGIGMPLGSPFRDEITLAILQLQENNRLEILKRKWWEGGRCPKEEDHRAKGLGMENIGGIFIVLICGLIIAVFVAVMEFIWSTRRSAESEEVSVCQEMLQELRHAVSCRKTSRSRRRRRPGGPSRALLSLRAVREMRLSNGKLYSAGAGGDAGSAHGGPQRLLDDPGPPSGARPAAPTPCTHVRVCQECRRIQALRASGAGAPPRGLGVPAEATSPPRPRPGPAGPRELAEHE

Staphylococcus aureus [4] = assay: Antibacterial activity against Staphylococcus aureus assessed as diameter zone of inhibition; assay type: functional
Pseudomonas aeruginosa [5] = assay: Antibacterial activity against Pseudomonas aeruginosa assessed as diameter zone of inhibition; assay type: functional
Bacillus subtilis = assay: Antibacterial activity against Bacillus subtilis assessed as diameter zone of inhibition; assay type: functional
Escherichia coli [6] = assay: Antibacterial activity against Escherichia coli assessed as diameter zone of inhibition; assay type: functional
Salmonella typhimurium = assay: Antibacterial activity against Salmonella typhimurium assessed as diameter zone of inhibition; assay type: functional, Salmonella enterica subsp. enterica serovar Typhimurium
Streptococcus pneumoniae = assay: Antibacterial activity against Streptococcus pneumoniae assessed as diameter zone of inhibition; assay type: functional
Staphylococcus aureus [7] = assay: Antibacterial activity against Staphylococcus aureus; assay type: functional
[8] = Cytotoxicity against mock-infected human MT4 cells; assay type: toxicity, cell-based
[9] = Inhibition of KA-induced cytotoxicity in human hippocampal cell culture; assay type: toxicity, cell-based; details: Hippocampal neurone
[10] = molecular target: T2, Glutamate receptor ionotropic AMPA (Homo sapiens, UniProt P42261+P42262+P42263+P48058); assay: Displacement of [3H]AMPA from AMPA receptor (unknown origin); assay type: protein-complex assay
[11] = molecular target: Glutamate [NMDA] receptor; assay: Antagonist activity at NMDA receptor (unknown origin) assessed as NMDA-induced depolarizations; assay type: protein-complex assay, Homo sapiens
[12] = molecular target: Glutamate [NMDA] receptor; assay: Displacement of [3H]MK-801 from NMDA receptor (unknown origin); assay type: protein-complex assay, Homo sapiens
[13] = molecular target: T2, Glutamate receptor ionotropic AMPA; assay: Displacement of [3H]kainic acid from AMPA receptor (unknown origin); assay type: protein-complex assay
[14] = Displacement of [3H]glycine from AMPA receptor (unknown origin); assay type: protein-complex assay, Homo sapiens
[15] = molecular target: T2, Glutamate receptor ionotropic AMPA; assay: Antagonist activity at AMPA receptor (unknown origin) assessed as AMPA-induced depolarizations; assay type: protein-complex assay
[16] = molecular target: Glutamate [NMDA] receptor; assay: Displacement of [3H]MDL from NMDA receptor (unknown origin); assay type: protein-complex assay, Homo sapiens
[17] = Displacement of [3H]AMPA from NMDA receptor (unknown origin); assay type: protein-complex assay, Homo sapiens
[18] = molecular target: T2, Glutamate receptor ionotropic AMPA; assay: Displacement of [3H]CNQX from AMPA receptor (unknown origin); assay type: protein-complex assay
WI-38 = assay: Antiproliferative activity against human WI-38 cells; assay type: functional, cell-based
[19] = molecular target: Epidermal growth factor receptor (Homo sapiens, UniProt P00533, L858R); assay: Inhibition of EGFR L858R mutant (unknown origin)
MCF7 = assay: Antiproliferative activity against human MCF7 cells; assay type: functional, cell-based
HepG2 = assay: Antiproliferative activity against human HepG2 cells; assay type: functional, cell-based
[20] = molecular target: Epidermal growth factor receptor (Homo sapiens, UniProt P00533); assay: Inhibition of wild-type EGFR (unknown origin)
HCT-116 = assay: Antiproliferative activity against human HCT-116 cells; assay type: functional, cell-based
Trypsin = Trypsin (Homo sapiens, UniProt P07477+P07478+P35030); assay: Inhibition of trypsin (unknown origin); assay type: protein assay
K562 = assay: Antiproliferative activity against human K562 cells; assay type: functional, cell-based
[21] = Antiproliferative activity against human 3AO cells; assay type: functional, cell-based
[22] = molecular target: Vascular endothelial growth factor receptor 2 (Homo sapiens, UniProt P35968); assay: Inhibition of VEGFR2 (unknown origin) at 1 uM relative to control
BEAS-2B = assay: Antiproliferative activity against human BEAS-2B cells; assay type: functional, cell-based
PC-3 = assay: Antiproliferative activity against human PC-3 cells; assay type: functional, cell-based
HeLa = assay: Antiproliferative activity against human HeLa cells; assay type: functional, cell-based
Escherichia coli [23] = assay: Antibacterial activity against Escherichia coli; assay type: functional
[24] = Dissociation constant, pKa of the compound; assay type: physicochemical
[25] = molecular target: Voltage-gated inwardly rectifying potassium channel KCNH2 (Homo sapiens, UniProt Q12809); assay: Inhibition of hERG; assay type: toxicity
Pseudomonas aeruginosa [26] = assay: Antibacterial activity against Pseudomonas aeruginosa; assay type: functional
[27] = Lipophilicity, logD of compound; assay type: physicochemical; details: octanol/water
Klebsiella pneumoniae = assay: Antibacterial activity against Klebsiella pneumoniae; assay type: functional
[28] = Inhibition of Escherichia coli topoisomerase 4

Sequence of Voltage-gated inwardly rectifying potassium channel KCNH2 (Q12809 whole entry): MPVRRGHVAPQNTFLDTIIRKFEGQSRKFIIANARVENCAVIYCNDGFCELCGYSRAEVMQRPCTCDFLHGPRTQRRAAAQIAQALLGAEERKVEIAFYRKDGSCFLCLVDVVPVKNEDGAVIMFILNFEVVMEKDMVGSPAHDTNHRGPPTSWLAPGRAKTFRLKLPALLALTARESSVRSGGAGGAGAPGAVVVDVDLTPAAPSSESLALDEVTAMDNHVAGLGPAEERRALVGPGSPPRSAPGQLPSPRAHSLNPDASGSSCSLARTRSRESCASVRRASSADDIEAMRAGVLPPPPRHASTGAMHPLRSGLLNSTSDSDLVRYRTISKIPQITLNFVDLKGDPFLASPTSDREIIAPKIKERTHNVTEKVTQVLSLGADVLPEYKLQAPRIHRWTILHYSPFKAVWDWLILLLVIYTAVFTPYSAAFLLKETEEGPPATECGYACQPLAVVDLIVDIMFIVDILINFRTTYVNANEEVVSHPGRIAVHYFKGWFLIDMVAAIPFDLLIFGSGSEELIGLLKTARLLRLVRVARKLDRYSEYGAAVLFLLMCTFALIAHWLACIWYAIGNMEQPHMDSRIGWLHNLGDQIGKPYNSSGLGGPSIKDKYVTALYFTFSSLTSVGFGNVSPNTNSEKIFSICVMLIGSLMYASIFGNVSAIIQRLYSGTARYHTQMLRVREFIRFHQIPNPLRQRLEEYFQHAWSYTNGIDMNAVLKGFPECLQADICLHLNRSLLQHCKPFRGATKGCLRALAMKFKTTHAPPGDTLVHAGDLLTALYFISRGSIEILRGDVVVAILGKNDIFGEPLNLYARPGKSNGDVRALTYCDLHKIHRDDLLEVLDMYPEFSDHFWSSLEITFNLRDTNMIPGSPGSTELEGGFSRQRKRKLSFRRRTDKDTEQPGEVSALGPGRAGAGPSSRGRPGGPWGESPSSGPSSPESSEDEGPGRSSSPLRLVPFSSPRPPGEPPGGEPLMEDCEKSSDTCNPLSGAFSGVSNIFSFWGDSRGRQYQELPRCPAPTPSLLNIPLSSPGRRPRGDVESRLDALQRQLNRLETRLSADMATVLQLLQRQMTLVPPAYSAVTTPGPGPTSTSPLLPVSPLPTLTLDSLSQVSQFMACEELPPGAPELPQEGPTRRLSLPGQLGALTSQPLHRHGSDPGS
Sequence of Epidermal growth factor receptor (Homo sapiens, UniProt P00533) (P00533 whole entry): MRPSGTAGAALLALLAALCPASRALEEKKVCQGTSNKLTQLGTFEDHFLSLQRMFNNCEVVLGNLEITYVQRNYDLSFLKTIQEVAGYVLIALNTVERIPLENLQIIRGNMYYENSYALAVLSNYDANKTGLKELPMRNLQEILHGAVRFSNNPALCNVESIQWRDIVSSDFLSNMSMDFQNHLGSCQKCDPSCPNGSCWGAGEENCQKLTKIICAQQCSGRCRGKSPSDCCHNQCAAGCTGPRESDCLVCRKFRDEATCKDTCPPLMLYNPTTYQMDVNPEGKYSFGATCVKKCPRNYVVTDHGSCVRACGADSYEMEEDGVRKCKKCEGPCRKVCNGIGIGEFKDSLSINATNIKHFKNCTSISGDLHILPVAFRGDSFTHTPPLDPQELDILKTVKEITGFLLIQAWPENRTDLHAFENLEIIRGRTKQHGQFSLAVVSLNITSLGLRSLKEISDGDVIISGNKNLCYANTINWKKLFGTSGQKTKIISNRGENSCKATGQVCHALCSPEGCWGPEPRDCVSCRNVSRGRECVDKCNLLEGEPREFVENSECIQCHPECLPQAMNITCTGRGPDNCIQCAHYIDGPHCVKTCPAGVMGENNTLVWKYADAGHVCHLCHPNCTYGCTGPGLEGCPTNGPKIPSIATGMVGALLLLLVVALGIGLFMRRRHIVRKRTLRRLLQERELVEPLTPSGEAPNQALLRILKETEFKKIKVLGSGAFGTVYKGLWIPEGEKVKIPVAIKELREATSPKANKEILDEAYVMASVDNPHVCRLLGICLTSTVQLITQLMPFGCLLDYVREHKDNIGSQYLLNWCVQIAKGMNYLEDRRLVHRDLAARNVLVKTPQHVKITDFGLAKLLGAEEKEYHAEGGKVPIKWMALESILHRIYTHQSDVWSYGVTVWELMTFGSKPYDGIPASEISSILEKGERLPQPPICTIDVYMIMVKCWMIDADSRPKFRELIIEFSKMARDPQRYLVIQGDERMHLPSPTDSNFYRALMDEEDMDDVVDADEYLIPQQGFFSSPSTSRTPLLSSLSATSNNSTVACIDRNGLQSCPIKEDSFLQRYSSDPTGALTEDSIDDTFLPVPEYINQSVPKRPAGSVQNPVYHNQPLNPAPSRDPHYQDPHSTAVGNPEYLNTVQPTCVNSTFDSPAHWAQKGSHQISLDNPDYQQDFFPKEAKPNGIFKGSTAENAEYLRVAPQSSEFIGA
Sequence of Epidermal growth factor receptor (Homo sapiens, UniProt P00533, L858R) (P00533 25-1210 L858R limits assumed): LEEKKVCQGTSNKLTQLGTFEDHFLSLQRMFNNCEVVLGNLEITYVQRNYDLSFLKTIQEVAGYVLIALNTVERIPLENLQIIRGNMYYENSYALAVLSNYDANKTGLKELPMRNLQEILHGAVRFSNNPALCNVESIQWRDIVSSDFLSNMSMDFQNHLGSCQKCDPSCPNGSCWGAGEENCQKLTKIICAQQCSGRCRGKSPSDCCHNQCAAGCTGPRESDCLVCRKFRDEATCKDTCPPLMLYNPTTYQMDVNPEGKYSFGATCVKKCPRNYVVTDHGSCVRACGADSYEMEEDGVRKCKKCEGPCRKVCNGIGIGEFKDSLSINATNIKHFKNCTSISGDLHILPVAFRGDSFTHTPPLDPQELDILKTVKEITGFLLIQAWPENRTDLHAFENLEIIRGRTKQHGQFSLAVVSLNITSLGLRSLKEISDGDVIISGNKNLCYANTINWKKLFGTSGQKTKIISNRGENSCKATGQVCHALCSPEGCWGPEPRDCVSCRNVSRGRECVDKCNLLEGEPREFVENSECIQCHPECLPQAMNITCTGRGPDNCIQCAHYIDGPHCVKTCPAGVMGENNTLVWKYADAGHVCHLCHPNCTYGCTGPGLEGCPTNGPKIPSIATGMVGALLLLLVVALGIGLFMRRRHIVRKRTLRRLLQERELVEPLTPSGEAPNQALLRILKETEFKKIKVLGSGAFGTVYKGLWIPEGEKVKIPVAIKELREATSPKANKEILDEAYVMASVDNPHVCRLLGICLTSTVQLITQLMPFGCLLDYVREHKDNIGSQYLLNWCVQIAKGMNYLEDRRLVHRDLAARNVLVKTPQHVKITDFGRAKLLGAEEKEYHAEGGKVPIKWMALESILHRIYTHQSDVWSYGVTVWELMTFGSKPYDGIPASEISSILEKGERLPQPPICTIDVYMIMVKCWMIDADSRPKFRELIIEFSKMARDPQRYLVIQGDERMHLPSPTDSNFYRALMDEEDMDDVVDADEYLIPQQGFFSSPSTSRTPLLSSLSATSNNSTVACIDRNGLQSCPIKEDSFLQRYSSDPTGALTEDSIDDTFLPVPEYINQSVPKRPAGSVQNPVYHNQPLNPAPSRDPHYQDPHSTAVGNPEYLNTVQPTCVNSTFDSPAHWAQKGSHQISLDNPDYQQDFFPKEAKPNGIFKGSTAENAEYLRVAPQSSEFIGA
Sequence of Vascular endothelial growth factor receptor 2 (P35968 whole entry): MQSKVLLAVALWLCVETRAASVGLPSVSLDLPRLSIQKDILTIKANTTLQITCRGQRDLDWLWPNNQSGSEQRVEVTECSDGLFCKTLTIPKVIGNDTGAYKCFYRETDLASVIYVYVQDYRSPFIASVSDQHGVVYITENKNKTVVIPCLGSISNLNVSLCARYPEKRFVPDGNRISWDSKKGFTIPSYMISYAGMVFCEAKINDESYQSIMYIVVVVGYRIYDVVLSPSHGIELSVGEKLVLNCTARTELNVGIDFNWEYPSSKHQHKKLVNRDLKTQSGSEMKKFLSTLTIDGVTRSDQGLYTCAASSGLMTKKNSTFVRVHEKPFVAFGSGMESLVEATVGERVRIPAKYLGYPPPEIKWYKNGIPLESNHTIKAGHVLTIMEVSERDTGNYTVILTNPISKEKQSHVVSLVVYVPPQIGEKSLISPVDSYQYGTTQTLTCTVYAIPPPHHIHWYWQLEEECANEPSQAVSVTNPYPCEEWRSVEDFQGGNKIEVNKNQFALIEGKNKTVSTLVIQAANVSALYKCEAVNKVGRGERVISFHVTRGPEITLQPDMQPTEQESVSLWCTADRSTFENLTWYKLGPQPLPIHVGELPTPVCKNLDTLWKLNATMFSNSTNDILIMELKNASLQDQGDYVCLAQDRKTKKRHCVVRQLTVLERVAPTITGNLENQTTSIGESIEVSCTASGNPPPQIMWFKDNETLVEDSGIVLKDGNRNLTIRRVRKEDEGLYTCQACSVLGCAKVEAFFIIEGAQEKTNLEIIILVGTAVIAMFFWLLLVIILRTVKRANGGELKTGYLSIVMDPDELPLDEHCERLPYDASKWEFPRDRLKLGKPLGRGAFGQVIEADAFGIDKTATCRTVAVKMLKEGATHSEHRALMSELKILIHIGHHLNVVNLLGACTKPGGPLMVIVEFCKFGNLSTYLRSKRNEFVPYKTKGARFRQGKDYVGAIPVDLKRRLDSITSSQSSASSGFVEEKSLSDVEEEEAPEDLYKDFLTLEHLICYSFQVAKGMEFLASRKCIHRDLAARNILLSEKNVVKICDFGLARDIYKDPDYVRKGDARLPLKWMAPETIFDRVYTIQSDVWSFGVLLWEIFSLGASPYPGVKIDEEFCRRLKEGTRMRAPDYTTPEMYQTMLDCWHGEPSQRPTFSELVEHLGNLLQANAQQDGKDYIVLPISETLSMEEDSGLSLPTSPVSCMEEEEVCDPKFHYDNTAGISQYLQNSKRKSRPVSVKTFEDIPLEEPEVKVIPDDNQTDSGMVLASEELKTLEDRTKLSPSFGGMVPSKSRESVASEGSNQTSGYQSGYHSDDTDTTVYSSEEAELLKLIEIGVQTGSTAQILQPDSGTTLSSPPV

SMILES: Cc1cccc(C)c1NCC(=O)N1CC(=O)Nc2ccccc21
diameter of the inhibition zone (DIZ) (Staphylococcus aureus [4]): 8 mm
diameter of the inhibition zone (DIZ) (Pseudomonas aeruginosa [5]): 11 mm
diameter of the inhibition zone (DIZ) (Bacillus subtilis): 11 mm
diameter of the inhibition zone (DIZ) (Escherichia coli [6]): 10 mm
diameter of the inhibition zone (DIZ) (Salmonella typhimurium): 9 mm
diameter of the inhibition zone (DIZ) (Streptococcus pneumoniae): 8 mm

SMILES: O=c1[nH]c2ccc(Cl)c(Cl)c2nc1C(F)(F)F
MBC (Staphylococcus aureus [7]): 200 µM (≈ 56.6 µg/mL)
MIC (Staphylococcus aureus [7]): 33 µM
CC50 [8]: 108 µM

SMILES: O=C1CN(C(=O)CNc2cccc(Cl)c2)c2ccccc2N1
diameter of the inhibition zone (DIZ) (Escherichia coli [6]): 9 mm
diameter of the inhibition zone (DIZ) (Salmonella typhimurium): 9 mm

SMILES: O=c1[nH]c2cc(C(F)(F)F)c(-n3ccnc3)nc2n2ccnc12
IC50 [9]: 320 nM
Ki [10]: 66 nM

SMILES: COC(=O)CCc1nc2ccc(Cl)cc2[nH]c1=O
IC50 (WI-38): 242 µM
IC50 [19]: 82.8 nM
IC50 (MCF7): 23.3 µM
IC50 (HepG2): 46.2 µM
IC50 [20]: 1340 nM
IC50 (HCT-116): 31.6 µM

SMILES: O=c1[nH]c2ccc(Cl)c(Cl)c2nc1CBr
CC50 [8]: 24 µM

SMILES: COc1ccc2[nH]c(=O)c(CBr)nc2c1Cl
CC50 [8]: 21 µM

SMILES: O=C(O)c1nc2c(=O)[nH]c3cc(Cl)c(-n4cnnc4)cc3n2n1 [TQX-173]
IC50 [11]: 46 µM
IC50 [13]: 11.6 µM
Ki [10]: 140 nM
Ki [14]: 33.5 µM
IC50 [15]: 2300 nM

Second part, led by results:

Ki (Glutamate receptor 2): 23.6 µM
Ki [1]: 100 µM
Ki [2]: > 100 µM
Ki [3]: > 100 µM
SMILES: O=C(Nn1c(=O)c(=O)[nH]c2cc(C#Cc3ccccc3)ccc21)c1ccccc1

Ki [10]: 57 nM
SMILES: O=c1[nH]c2cc([N+](=O)[O-])c(-n3ccnc3)nc2n2ccnc12
IC50 [9]: 300 nM

IC50 [11]: 52 µM
IC50 [12]: 11.7 µM
IC50 [13]: 36 µM
Ki [10]: 860 nM
Ki [14]: 0.86 µM
IC50 [15]: 3000 nM
SMILES: O=C(O)c1nc2c(O)nc3cc(Cl)c(-n4cccc4)cc3n2n1

IC50 [16]: 10 nM
IC50 [17]: 2000 nM
SMILES: O=C(NCc1cc(Br)cc2[nH]c(=O)c(=O)[nH]c12)c1ccsc1

IC50 [18]: 9.2 µM
IC50 [13]: > 100 µM
IC50 [10]: 9.3 µM
SMILES: O=c1[nH]c2cc(CO)c(CO)cc2[nH]c1=O

IC50 [19]: 87.3 nM
IC50 (MCF7): 16.9 µM
IC50 (HepG2): 18.6 µM
IC50 [20]: 1550 nM
IC50 (HCT-116): 28.4 µM
SMILES: NNC(=O)/C=C1/Nc2ccc(Br)cc2NC1=O
IC50 (WI-38): 227 µM

IC50 (Trypsin): 2.4 µM
SMILES: Cn1c(=O)c(Cc2ccc(C(=N)N)cc2)nc2cc(C3(C(=O)N4CCCC4C(=O)NCC(=O)O)CC3)ccc21 (configuration not stated)

IC50 (K562): 50.4 µM
IC50 (MCF7): > 100 µM
inhibition [22]: 44%
IC50 (PC-3): > 100 µM
IC50 (HeLa): > 100 µM
SMILES: O=C(Cn1c(=O)c(/C=C/c2ccncc2)nc2ccccc21)Nc1ccc(Cl)cc1
IC50 [21]: > 100 µM
IC50 (BEAS-2B): > 100 µM

MIC (Staphylococcus aureus [7]): 8 µg/mL
MIC (Escherichia coli [23]): 0.5 µg/mL (≈ 1.04 µM)
MIC90 (Escherichia coli [23]): 0.5 µg/mL (≈ 1.04 µM)
pKa [24]: 7.66
MIC (Pseudomonas aeruginosa [26]): 1 µg/mL (≈ 2.09 µM)
MIC90 (Pseudomonas aeruginosa [26]): 4 µg/mL (≈ 8.36 µM)
logD [27]: -0.86
MIC (Klebsiella pneumoniae): 8 µg/mL (≈ 16.7 µM)
IC50 [28]: 2 nM
SMILES: COc1cnc2ccc(=O)n(C[C@@H](N)[C@H]3CC[C@H](NCc4ccc5c(n4)NC(=O)CO5)CC3)c2c1
IC50 [25]: > 333 µM

MIC (Staphylococcus aureus [7]): 1 µg/mL
MIC (Escherichia coli [23]): < 0.06 µg/mL
MIC90 (Escherichia coli [23]): 1 µg/mL (≈ 2.14 µM)
pKa [24]: 7.28
MIC (Pseudomonas aeruginosa [26]): 0.5 µg/mL (≈ 1.07 µM)
MIC90 (Pseudomonas aeruginosa [26]): 4 µg/mL (≈ 8.56 µM)
logD [27]: -0.32
MIC90 (Klebsiella pneumoniae): 16 µg/mL (≈ 34.2 µM)
IC50 [28]: 3 nM
SMILES: N[C@H](Cn1c(=O)cnc2ccc(F)cc21)[C@H]1CC[C@H](NCc2ncc3c(n2)NC(=O)CO3)CC1
IC50 [25]: > 333 µM
